Here are results for 21 compounds from ChEMBL document CHEMBL4261501, “Design, synthesis and biological evaluation of imidazopyridine-propenone conjugates as potent tubulin inhibitors” (Medchemcomm, 2017).

The source made the active and inactive calls. The calls are words filed in the database; no cut-off is given here.

Experiment [1] deals with A549. Briefly: Cell cycle arrest in human A549 cells assessed as accumulation at G2/M phase at 1 uM after 48 hrs by propidium iodide staining based flow cytometry (reference value: 7.4%). Format: functional.
The test system of experiment [2] is A549. The experiment in a line: Cell cycle arrest in human A549 cells assessed as accumulation at sub-G1 phase at 1 uM after 48 hrs by propidium iodide staining based flow cytometry (reference value: 1.11%). Format: functional.
Experiment [3] relates to A549. The experiment in a line: Induction of apoptosis in human A549 cells assessed as early apoptotic cells at 1 uM after 48 hrs by Annexin V-FITC/propidium iodide staining based flow cytometry (reference value: 1.03%). Type of experiment: functional.
For experiment [4], the system named is A549. The experiment in a line: Induction of apoptosis in human A549 cells assessed as live cells at 1 uM after 48 hrs by Annexin V-FITC/propidium iodide staining based flow cytometry (reference value: 93.97%). Type of experiment: functional.
Experiment [5] deals with DU-145. Briefly: Cytotoxicity against human DU145 cells after 48 hrs by MTT assay. Format: functional, cell-based. The settings on record: DU-145, 48 h.
In experiment [6] the test system is HeLa. The experiment in a line: cells. The settings on record: Homo sapiens, 48 h.
Description: Cytotoxicity against human HeLa cells after 48 hrs by MTT assay
The test system of experiment [7] is A549. The experiment in a line: cells. The settings on record: Homo sapiens, A549, 48 h.
Description: Cytotoxicity against human A549 cells after 48 hrs by MTT assay
Experiment [8] relates to A549. The experiment in a line: Induction of mitochondrial membrane potential loss in human A549 cells assessed as collapse of the mitochondrial membrane potential at 1 uM after 48 hrs by JC1 staining based flow cytomtery (reference value: 3.5%). Type of experiment: functional.
The target in experiment [9] is Tubulin (Homo sapiens) (UniProt P68371+Q9H4B7+P0DPH7+P68366+Q13509+Q71U36+P04350+Q3ZCM7+P07437+P68363+Q9BQE3+Q6PEY2+Q13885+Q9BVA1+Q9BUF5). Briefly: Inhibition of tubulin polymerization (unknown origin) at 3 uM after 1 hr by fluorescence assay relative to control. Format: protein-complex assay.
In experiment [10] the test system is A549. Briefly: Induction of mitochondrial membrane potential loss in human A549 cells assessed as intact mitochondrial membrane at 1 uM after 48 hrs by JC1 staining based flow cytomtery (reference value: 96.3%). Type of experiment: functional.
For experiment [11], the system named is A549. Briefly: Induction of apoptosis in human A549 cells assessed as late apoptotic cells at 1 uM after 48 hrs by Annexin V-FITC/propidium iodide staining based flow cytometry (reference value: 3.83%). Format: functional.
The test system of experiment [12] is MCF7. The experiment in a line: cells. The settings on record: Homo sapiens, MCF7, 48 h.
Description: Cytotoxicity against human MCF7 cells after 48 hrs by MTT assay
The test system of experiment [13] is A549. The experiment in a line: Induction of apoptosis in human A549 cells assessed as necrotic cells at 1 uM after 48 hrs by Annexin V-FITC/propidium iodide staining based flow cytometry (reference value: 1.17%). Format: functional.
Experiment [14] deals with A549. Briefly: Cell cycle arrest in human A549 cells assessed as accumulation at S phase at 1 uM after 48 hrs by propidium iodide staining based flow cytometry (reference value: 1.92%). Type of experiment: functional.
Experiment [15] deals with A549. The experiment in a line: Disruption of microtubule organization in human A549 cells at 0.5 uM after 48 hrs by fluorescence microscopic analysis. Type of experiment: cell-based.
Experiment [16] has as its system A549. The experiment in a line: Cell cycle arrest in human A549 cells assessed as accumulation at G0/G1 phase at 1 uM after 48 hrs by propidium iodide staining based flow cytometry (reference value: 90.52%). Type of experiment: functional.
The subject of experiment [17] is A549. The experiment in a line: Induction of apoptosis in human A549 cells assessed as necrotic cells at 0.5 uM after 48 hrs by Annexin V-FITC/propidium iodide staining based flow cytometry (reference value: 1.17%). Type of experiment: functional.
In experiment [18] the test system is A549. Briefly: Induction of apoptosis in human A549 cells assessed as late apoptotic cells at 0.5 uM after 48 hrs by Annexin V-FITC/propidium iodide staining based flow cytometry (reference value: 3.83%). Type of experiment: functional.
Experiment [19] has as its system A549. The experiment in a line: Induction of apoptosis in human A549 cells assessed as formation of apoptotic bodies at 0.5 uM after 48 hrs by Hoechst 33258 staining based fluorescence microscopic analysis. Format: functional, cell-based.
The subject of experiment [20] is A549. The experiment in a line: Induction of apoptosis in human A549 cells assessed as nuclear fragmentation at 0.5 uM after 48 hrs by Hoechst 33258 staining based fluorescence microscopic analysis. Type of experiment: functional, cell-based.
Experiment [21] has as its system A549. Briefly: Cell cycle arrest in human A549 cells assessed as accumulation at sub-G1 phase at 0.5 uM after 48 hrs by propidium iodide staining based flow cytometry (reference value: 1.11%). Format: functional.
In experiment [22] the test system is A549. The experiment in a line: Induction of apoptosis in human A549 cells assessed as early apoptotic cells at 0.5 uM after 48 hrs by Annexin V-FITC/propidium iodide staining based flow cytometry (reference value: 1.03%). Format: functional.
Experiment [23] deals with Tubulin. The experiment in a line: Inhibition of tubulin polymerization (unknown origin) after 1 hr by fluorescence assay. Type of experiment: protein-complex assay, Homo sapiens.
Experiment [24] deals with A549. Briefly: Cell cycle arrest in human A549 cells assessed as accumulation at G2/M phase at 0.5 uM after 48 hrs by propidium iodide staining based flow cytometry (reference value: 7.4%). Type of experiment: functional.
The subject of experiment [25] is A549. Briefly: Cell cycle arrest in human A549 cells assessed as accumulation at G0/G1 phase at 0.5 uM after 48 hrs by propidium iodide staining based flow cytometry (reference value: 90.52%). Format: functional.
Experiment [26] concerns A549. The experiment in a line: Induction of apoptosis in human A549 cells assessed as cytoplasmic condensation at 0.5 uM after 48 hrs by Hoechst 33258 staining based fluorescence microscopic analysis. Format: functional, cell-based.
The test system of experiment [27] is A549. Briefly: Induction of mitochondrial membrane potential loss in human A549 cells assessed as collapse of the mitochondrial membrane potential at 0.5 uM after 48 hrs by JC1 staining based flow cytomtery (reference value: 3.5%). Type of experiment: functional.
The subject of experiment [28] is A549. Briefly: Induction of apoptosis in human A549 cells assessed as live cells at 0.5 uM after 48 hrs by Annexin V-FITC/propidium iodide staining based flow cytometry (reference value: 93.97%). Format: functional.
Experiment [29] concerns A549. Briefly: Cell cycle arrest in human A549 cells assessed as accumulation at S phase at 0.5 uM after 48 hrs by propidium iodide staining based flow cytometry (reference value: 1.92%). Type of experiment: functional.
Experiment [30] relates to A549. Briefly: Induction of mitochondrial membrane potential loss in human A549 cells assessed as intact mitochondrial membrane at 0.5 uM after 48 hrs by JC1 staining based flow cytomtery (reference value: 96.3%). Format: functional.

For `COC(=O)Nc1nc2cc(C(=O)c3cccs3)ccc2[nH]1` [NOCODAZOLE], the Activity in [1] is 29.68%; in experiment [2], 0.79%; in experiment [3] it was 31.19 - 31.2%; in experiment [4], 51.48 - 51.5%; in experiment [8], 22.6%; in [10], 73.5%. Further, the Activity is 16.2 - 16.23% in experiment [11], 1.1 - 1.11% in [13], 4.55% in experiment [14] and 66.92% in [16]. The 50% inhibitory concentration (IC50) was 1.26 µM in [5], 1.61 µM in [6], 1.39 µM in experiment [7] and 1.09 µM in experiment [12]. Further, the inhibition in experiment [9] stood at 66.8%. The outcome in experiment [15] was Active.
For the compound `O=C(/C=C\Nc1cnc2ccccc2c1)c1c(-c2ccccc2)nc2ccccn12`, the IC50 amounted to 2.44 µM in experiment [5], 3.08 µM in [6], 1.75 µM in experiment [7] and 5.17 µM in experiment [12].
On to `COc1cc(N/C=C\C(=O)c2c(-c3ccc(Cl)cc3)nc3ccccn23)cc(OC)c1`, for which the IC50 in [5] worked out at 12 µM; in experiment [6], 14.6 µM; in experiment [7], 9.9 µM; in experiment [12] it was 13.6 µM.
For `COc1cc(N/C=C\C(=O)c2c(-c3ccc(Cl)cc3)nc3ccccn23)cc(OC)c1OC`, the IC50 came to 3.25 µM in experiment [5], 3.02 µM in experiment [6], 1.14 µM in experiment [7] and 3.39 µM in experiment [12].
With `O=C(/C=C\Nc1ccc2cc[nH]c2c1)c1c(-c2ccc(Cl)cc2)nc2ccccn12`, the IC50 turned out to be 2.63 µM in experiment [5], 10.9 µM in experiment [6], 2.29 µM in experiment [7] and 9.6 µM in [12].
For `COc1cc(N/C=C\C(=O)c2c(-c3ccccc3)nc3ccccn23)cc(OC)c1` the same measures were 2.92 µM, 3.09 µM, 2.24 µM and 10.2 µM.
The matching figures for `COc1ccc(-c2nc3ccccn3c2C(=O)/C=C\Nc2ccc(Br)cc2)cc1`: 1.45 µM, 4.54 µM, 1.35 µM and 9.83 µM.
For `O=C(/C=C\Nc1ccc(Br)cc1)c1c(-c2ccccc2)nc2ccccn12` the same measures were 1.82 µM, 2.04 µM, 1.35 µM and 8.67 µM.
Turning to `O=C(/C=C\Nc1ccc2ncccc2c1)c1c(-c2ccccc2)nc2ccccn12`, the Activity was 0.75 - 0.8% in experiment [17]; 30.5% in experiment [1]; 0.91% in experiment [2]; 34.99 - 35% in experiment [3]; 11.35 - 11.4% in [18]; 45.4 - 45.42% in [4]. Also, the Activity in experiment [21] is on record as 0.5%; in experiment [8], 31.7%; in [22], 22.9 - 22.92%; in [10], 60.8%; in experiment [24], 15.69%; in [11] it was 18.5 - 18.52%. Moreover, the Activity in experiment [25] is given as 82.37%; in experiment [27] it was 22.5%; in experiment [13], 1.07 - 1.1%; in experiment [14], 4.28%; in experiment [28], 64.98 - 65%; in [16], 66.32%. For the same compound, the Activity is given as 2.77% in [29] and 73.5% in experiment [30]. Moreover, the outcome in experiment [19], in [20], in experiment [26] and in experiment [15] was Active. The IC50 came out at 1.08 µM in [5]; 1.22 µM in [6]; 0.861 µM in experiment [7]; 1.82 µM in experiment [23]; 1.81 µM in experiment [12]. This compound also gave an inhibition in experiment [9] of 68.2%.
For the compound `COc1ccc(-c2nc3ccccn3c2C(=O)/C=C\Nc2ccc3cc[nH]c3c2)cc1`, the IC50 stood at 10.7 µM in experiment [5], 15.3 µM in experiment [6], 8.8 µM in experiment [7] and 19.4 µM in [12].
The matching figures for `COc1ccc(N/C=C\C(=O)c2c(-c3ccc(OC)cc3)nc3ccccn23)cc1`: 11.1 µM, 19.9 µM, 12.7 µM and 16.5 µM.
As for `COc1ccc(-c2nc3ccccn3c2C(=O)/C=C\Nc2ccc(F)cc2)cc1`, the IC50 in [5] was 6.13 µM; in [6], 11 µM; in experiment [7], 3.25 µM; in experiment [12], 13 µM.
With `COc1ccc(-c2nc3ccccn3c2C(=O)/C=C\Nc2ccc3[nH]ccc3c2)cc1`, the IC50 came to 11.3 µM in experiment [5], 13.6 µM in experiment [6], 11 µM in experiment [7] and 18.9 µM in experiment [12].
For `COc1ccc(N/C=C\C(=O)c2c(-c3ccc(Cl)cc3)nc3ccccn23)cc1` the same measures were 10.8 µM, 11.8 µM, 6.46 µM and 16.3 µM.
The matching figures for `O=C(/C=C\Nc1ccc2[nH]ccc2c1)c1c(-c2ccc(Cl)cc2)nc2ccccn12`: 1.29 µM, 3.24 µM, 1.01 µM and 7.12 µM.
For `COc1ccc(-c2nc3ccccn3c2C(=O)/C=C\Nc2cc(OC)cc(OC)c2)cc1` the same measures were 6.26 µM, 4.57 µM, 4.47 µM and 14.9 µM.
Take `COc1ccc(-c2nc3ccccn3c2C(=O)/C=C\Nc2ccc3ncccc3c2)cc1`: the IC50 in [5] is 4.72 µM; in experiment [6], 4.85 µM; in experiment [7] it was 1.21 µM; in experiment [12] it was 11.6 µM.
With `COc1ccc(N/C=C\C(=O)c2c(-c3ccccc3)nc3ccccn23)cc1`, the IC50 in [5] came to 2.19 µM; in experiment [6], 14.9 µM; in experiment [7], 1.57 µM; in [12] it was 7.61 µM.
For `O=C(/C=C\Nc1ccc2ncccc2c1)c1c(-c2ccc(Cl)cc2)nc2ccccn12` the same measures were 13.6 µM, 16.4 µM, 13 µM and 22.8 µM.
The matching figures for `O=C(/C=C\Nc1cnc2ccccc2c1)c1c(-c2ccc(Cl)cc2)nc2ccccn12`: 4.17 µM, 3.71 µM, 2.88 µM and 18.9 µM.
Turning to `COc1ccc(-c2nc3ccccn3c2C(=O)/C=C\Nc2cnc3ccccc3c2)cc1`, the half-inhibitory concentration (IC50) in experiment [5] was found to be 5.28 µM; in experiment [6], 9.44 µM; in experiment [7] it was 1.05 µM; in [12], 15 µM.
